Assay results: PubChem BioAssay (NCI)
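Five concentrations, 48 hours, 96-well plates. TGI: concentration producing complete growth inhibition.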

Experiments:
Experiment in all cases: NCI-60 cell line screen, 48 h
SNB-19 CNS = tested on: SNB-19 CNS
M14 melanoma = tested on: M14 melanoma
NCI-H23 lung = tested on: NCI-H23 lung
OVCAR-4 ovarian = tested on: OVCAR-4 ovarian
HOP-62 NSCLC = tested on: HOP-62 NSCLC
OVCAR-5 ovarian = tested on: OVCAR-5 ovarian
PC-3 prostate = tested on: PC-3 prostate
HCT-15 colon = tested on: HCT-15 colon
CCRF-CEM leukemia = tested on: CCRF-CEM leukemia
HS 578T breast = tested on: HS 578T breast
COLO 205 colon = tested on: COLO 205 colon
HT29 colon = tested on: HT29 colon
LOX IMVI melanoma = tested on: LOX IMVI melanoma
K-562 leukemia = tested on: K-562 leukemia
NCI-H522 lung = tested on: NCI-H522 lung
SF-295 CNS = tested on: SF-295 CNS
MALME-3M melanoma = tested on: MALME-3M melanoma
UACC-62 melanoma = tested on: UACC-62 melanoma
RPMI-8226 leukemia = tested on: RPMI-8226 leukemia
SK-MEL-28 melanoma = tested on: SK-MEL-28 melanoma
HOP-92 NSCLC = tested on: HOP-92 NSCLC
ACHN renal = tested on: ACHN renal
MDA-MB-231 breast = tested on: MDA-MB-231 breast
SF-268 CNS = tested on: SF-268 CNS
A498 renal = tested on: A498 renal
BT-549 breast = tested on: BT-549 breast
HL-60(TB) leukemia = tested on: HL-60(TB) leukemia
SK-OV-3 ovarian = tested on: SK-OV-3 ovarian
U251 CNS = tested on: U251 CNS
786-0 renal = tested on: 786-0 renal
MDA-N = tested on: MDA-N
EKVX NSCLC = tested on: EKVX NSCLC
MCF7 breast = tested on: MCF7 breast
IGROV1 ovarian = tested on: IGROV1 ovarian
HCT-116 colon = tested on: HCT-116 colon
DU-145 prostate = tested on: DU-145 prostate
SR leukemia = tested on: SR leukemia
NCI-H226 lung = tested on: NCI-H226 lung
KM12 colon = tested on: KM12 colon
TK-10 renal = tested on: TK-10 renal
SF-539 CNS = tested on: SF-539 CNS
MOLT-4 leukemia = tested on: MOLT-4 leukemia
SK-MEL-2 melanoma = tested on: SK-MEL-2 melanoma
OVCAR-8 ovarian = tested on: OVCAR-8 ovarian
RXF 393 renal = tested on: RXF 393 renal
HCC-2998 colon = tested on: HCC-2998 colon
SK-MEL-5 melanoma = tested on: SK-MEL-5 melanoma
A549 NSCLC = tested on: A549 NSCLC
MDA-MB-435 = tested on: MDA-MB-435
OVCAR-3 ovarian = tested on: OVCAR-3 ovarian
NCI-H460 lung = tested on: NCI-H460 lung
SNB-75 CNS = tested on: SNB-75 CNS
SN12C renal = tested on: SN12C renal
NCI/ADR-RES ovarian = tested on: NCI/ADR-RES ovarian
UACC-257 melanoma = tested on: UACC-257 melanoma
T-47D breast = tested on: T-47D breast
UO-31 renal = tested on: UO-31 renal
CAKI-1 renal = tested on: CAKI-1 renal
SW-620 colon = tested on: SW-620 colon

Measured: TGI

CC(=O)NNc1nc(C)c(C(/C=C/c2ccccc2O)=N/N=C(N)N)s1
> 100 µM: all assays above

C/C=C1/CC(C)C(C)(O)C(=O)OCC2C(O)CN3CCC(OC1=O)C23 (centres undefined)
not listed: MALME-3M melanoma | SK-MEL-28 melanoma | OVCAR-3 ovarian | UO-31 renal
> 100 µM: all other assays above
